From patent US20090156598A1, “Imidazolopyrimidine modulators of TRPV1” (priority 2007, published 2009)

Experiments:
human TRPV1 = target: T1, human TRPV1 (Homo sapiens, UniProt Q8NER1); experiment: Functional assay: block of capsaicin-induced Ca2+ influx, human assay (FLIPR, hTRPV1/HEK293); format: cell-based; conditions: hTRPV1/HEK293 cells, 150 nM capsaicin challenge, mean; > value = solubility limit in assay medium
T1 construct: expressed in transfected cells; host or cells: HEK293 (hTRPV1/HEK293), zeocin selection
Protocol: (§1) Functional assay: block of capsaicin-induced Ca^2+ influx
(§2) HEK293 cells were transfected with human TRPV1 cloned in pcDNA3.1zeo(+) using the Effectene non-liposomal lipid based transfection kit (Qiagen) (hTRPV1/HEK293). hTRPV1/HEK293 cells were routinely grown as monolayers under selection in zeocin (200 μg/mL; Invitrogen) in Dulbecco's Modified Eagle Medium (DMEM, Gibco BRL) supplemented with 10% fetal bovine serum, and penicillin/streptomycin (50 units/mL) in 5% CO2 at 37° C. Cells were passaged frequently, every 3-5 days, to avoid overgrowth, depletion of essential medium components, or acidic medium exposure. Cells were passaged using a brief wash in 0.05% trypsin with 1 mM EDTA, followed by dissociation in divalent-free phosphate-buffered saline (Hyclone #SH30028.02). Dissociated cells were seeded onto poly-D-lysine coated black-walled 96-well plates (Biocoat; Becton Dickinson #354640) at about 40,000 cells per well and grown for approximately 1 day in culture medium to near confluency. The assay buffer was composed of 130 mM NaCl, 2 mM KCl, 2 mM MgCl2, 10 mM HEPES, 5 mM glucose, and either 2 mM or 20 μM CaCl2. On the day of the experiment, the culture medium was replaced with 2 mM calcium assay buffer using an automated plate washer (EL×405; Biotek, VT). The cells were incubated in 100 μL/well Fluo-3/AM (2 μM; TEFLabs #0116) with Pluronic F127 (100 μg/mL; Sigma #P2443) for 1 h at rt in the dark. After loading the cells, the dye solution was replaced with 50 μL/well of 20 μM calcium assay buffer using the EL×405 plate washer. Test compounds (50 μL/well) were added to the plate and incubated for 30 min. Intracellular Ca^2+ levels were subsequently assayed using a Fluorometric Imaging Plate Reader (FLIPR™ instrument, Molecular Devices, CA) to simultaneously monitor Fluo-3 fluorescence in all wells (λexcitation=488 nm, λemission=540 nm) during challenge with agonist (capsaicin). The IC50 values were determined. Cells were challenged with 150 nM capsaicin and the fluorescence counts were captured following agonist addition at a sampling rate of 0.33 Hz. The contents of the wells were mixed 3 times (40 μL mix volume) immediately after the additions were made. Concentration-dependence of block was determined by exposing each well of cells in duplicate rows of a 96-well plate to a serial dilution of test compound. The concentration series usually started at 10 μM with a three-fold serial decrement in concentration. The magnitude of the capsaicin response was determined by measuring the change in fluo3 fluorescence before and 100 seconds after the addition of the agonist. Data were analyzed using a non-linear regression program (Origin; OriginLab, MA).
(§3) IC50 values shown are the average (mean) of the results obtained. Where activity is shown as greater than (>) a particular value, the value is the solubility limit of the compound in the assay medium.

rat TRPV1 = target: T2, rat TRPV1 (Rattus norvegicus, UniProt O35433); experiment: Functional assay: block of capsaicin-induced Ca2+ influx, rat assay (FLIPR, rTRPV1/HEK293); format: cell-based; conditions: rTRPV1/HEK293 cells, capsaicin challenge, mean; > value = solubility limit in assay medium
T2 construct: expressed in transfected cells; host or cells: HEK293 (rTRPV1/HEK293), geneticin selection
Protocol: as §1, §2
This assay was performed similarly to the human assay described above, but using HEK293 cells transfected with rat TRPV1 (rTRPV1/HEK293).
as §3

T2 sequence (O35433 whole entry): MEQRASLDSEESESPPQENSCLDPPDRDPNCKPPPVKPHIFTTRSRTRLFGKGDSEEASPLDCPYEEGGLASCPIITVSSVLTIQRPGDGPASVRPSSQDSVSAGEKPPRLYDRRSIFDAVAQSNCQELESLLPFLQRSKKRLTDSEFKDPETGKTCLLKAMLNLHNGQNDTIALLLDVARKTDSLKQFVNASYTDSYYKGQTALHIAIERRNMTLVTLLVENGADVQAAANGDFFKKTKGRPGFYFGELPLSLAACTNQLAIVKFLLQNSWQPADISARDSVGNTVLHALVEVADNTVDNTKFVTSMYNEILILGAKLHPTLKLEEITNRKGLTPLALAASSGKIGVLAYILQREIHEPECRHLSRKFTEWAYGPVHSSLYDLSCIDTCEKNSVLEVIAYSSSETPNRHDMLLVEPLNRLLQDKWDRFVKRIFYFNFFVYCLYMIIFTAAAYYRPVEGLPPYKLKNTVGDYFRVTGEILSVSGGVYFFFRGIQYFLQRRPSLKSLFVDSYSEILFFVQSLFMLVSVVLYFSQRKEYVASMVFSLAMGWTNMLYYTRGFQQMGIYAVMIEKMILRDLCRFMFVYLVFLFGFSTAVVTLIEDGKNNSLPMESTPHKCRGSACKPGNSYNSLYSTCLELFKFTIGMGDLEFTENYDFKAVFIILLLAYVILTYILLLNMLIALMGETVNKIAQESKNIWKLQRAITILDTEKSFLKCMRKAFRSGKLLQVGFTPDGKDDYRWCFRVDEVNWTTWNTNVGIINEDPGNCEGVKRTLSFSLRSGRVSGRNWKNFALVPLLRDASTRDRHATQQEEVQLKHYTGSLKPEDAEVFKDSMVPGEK
T1 sequence (Q8NER1 whole entry): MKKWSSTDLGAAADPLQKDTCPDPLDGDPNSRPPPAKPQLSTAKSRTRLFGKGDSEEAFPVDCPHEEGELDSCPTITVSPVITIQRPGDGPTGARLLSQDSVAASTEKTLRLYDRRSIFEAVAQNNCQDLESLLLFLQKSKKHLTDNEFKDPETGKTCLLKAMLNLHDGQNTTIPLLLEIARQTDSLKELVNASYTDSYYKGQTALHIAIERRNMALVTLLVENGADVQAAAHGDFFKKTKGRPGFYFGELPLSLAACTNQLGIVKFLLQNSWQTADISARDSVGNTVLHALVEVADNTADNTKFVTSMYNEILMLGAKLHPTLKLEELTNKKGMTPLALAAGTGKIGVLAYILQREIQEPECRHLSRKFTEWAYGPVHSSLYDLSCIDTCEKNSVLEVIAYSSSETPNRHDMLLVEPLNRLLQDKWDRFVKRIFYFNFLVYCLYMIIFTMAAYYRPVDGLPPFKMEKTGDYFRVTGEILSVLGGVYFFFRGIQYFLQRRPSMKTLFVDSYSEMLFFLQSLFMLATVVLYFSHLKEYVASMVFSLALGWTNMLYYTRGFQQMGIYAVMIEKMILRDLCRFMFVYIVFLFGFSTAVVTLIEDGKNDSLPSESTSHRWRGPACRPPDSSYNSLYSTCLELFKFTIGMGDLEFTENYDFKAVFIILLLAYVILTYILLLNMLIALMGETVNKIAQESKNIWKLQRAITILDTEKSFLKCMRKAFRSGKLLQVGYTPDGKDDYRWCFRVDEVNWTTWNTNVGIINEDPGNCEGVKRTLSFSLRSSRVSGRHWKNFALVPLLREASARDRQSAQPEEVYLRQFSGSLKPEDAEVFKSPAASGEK

IC50 (human TRPV1) [nM]	IC50 (rat TRPV1) [nM]	SMILES
17	4.9	FC(F)(F)c1ccc(Nc2ncnc3[nH]c(Nc4c(Cl)cccc4Cl)nc23)cc1 [Example 1, N^8-(2,6-Dichloro-phenyl)-N^6-(4-trifluoromethyl-phenyl)-9H-purine-6,8-diamine]
–	19	FC(F)(F)c1ccc(Nc2ncnc3[nH]c(Nc4c(Cl)cccc4Cl)nc23)cn1 [Example 2, N^8-(2,6-Dichloro-phenyl)-N^6-(6-trifluoromethyl-pyridin-3-yl)-9H-purine-6,8-diamine]
2.3	0.15	CC(C)(C)c1ccc(Nc2ncnc3[nH]c(Nc4c(Cl)cccc4Cl)nc23)cc1 [Example 3, N^6-(4-tert-Butyl-phenyl)-N^8-(2,6-dichloro-phenyl)-9H-purine-6,8-diamine]
3390	1750	Clc1cccc(Cl)c1Nc1nc2c(Nc3ccccc3)ncnc2[nH]1 [Example 4, N^8-(2,6-Dichloro-phenyl)-N^6-phenyl-9H-purine-6,8-diamine]
170	18	CS(=O)(=O)c1ccc(Nc2ncnc3[nH]c(Nc4c(Cl)cccc4Cl)nc23)cc1 [Example 5, N^8-(2,6-Dichloro-phenyl)-N^6-(4-methanesulfonyl-phenyl)-9H-purine-6,8-diamine]
29	3	Cc1nc(Nc2ccc(C(F)(F)F)cc2)c2nc(Nc3c(Cl)cccc3Cl)[nH]c2n1 [Example 6, N^8-(2,6-Dichloro-phenyl)-2-methyl-N^6-(4-trifluoromethyl-phenyl)-9H-purine-6,8-diamine]
> 6670	> 6670	FC(F)(F)c1ccc(Nc2ncnc3[nH]c(Nc4ccccc4Cl)nc23)cc1 [Example 7, N^8-(2-Chloro-phenyl)-N^6-(4-trifluoromethyl-phenyl)-9H-purine-6,8-diamine]
3070	1010	FC(F)(F)c1ccc(Nc2ncnc3[nH]c(Nc4ccccc4C(F)(F)F)nc23)cc1 [Example 8, N^6-(4-Trifluoromethyl-phenyl)-N^8-(2-trifluoromethyl-phenyl)-9H-purine-6,8-diamine]
2300	1050	FC(F)(F)c1ccc(Nc2ncnc3[nH]c(Nc4ccccc4C(F)(F)F)nc23)cn1 [Example 9, N^8-(2-Trifluoromethyl-phenyl)-N^6-(6-trifluoromethyl-pyridin-3-yl)-9H-purine-6,8-diamine]
1460	1130	Cn1c(Nc2c(Cl)cccc2Cl)nc2c(Nc3ccc(C(F)(F)F)cc3)ncnc21 [Example 10, N^8-(2,6-Dichloro-phenyl)-9-methyl-N^6-(4-trifluoromethyl-phenyl)-9H-purine-6,8-diamine]
